US20250051391A1, “PEPTIDE INHIBITORS AND METHODS FOR INHIBITING PROTEIN AGGREGATION IN NEURONS AND NEURODEGENERATIVE DISEASES” (THE GOVERNING COUNCIL OF THE UNIVERSITY OF TORONTO, priority 2021, published 2025)
Ends that are not written are not given here.

System: HEK293 cells
Assay: LAMP1 and CD63 levels in HEK293 cells co-transfected with A53T a-syn and peptide
Format: cell-based, human
Description: Infected or transfected cells were scraped from 6-well dishes and lysed with lysis buffer (50 mM Tris-HCl pH7.4, 1% Nonidet P-40, 150 mM NaCl, 1 mM EDTA, 1× protease inhibitor mixture (Sigma)) for 30 min at 4° C. The insoluble pellet was removed following a 10,000 rpm spin for 5 minutes at 4° C. Lysates were analyzed by SDS-PAGE/immunoblot using 4-20% Mini-PROTEAN Tris-glycine gels (Bio-Rad) transferred to PVDF membranes and blocked in 5% milk containing PBS-Tween-20 (0.1%) for 1 h. PVDF membranes were then incubated with specified primary antibodies followed by incubation with horseradish peroxidase-conjugated secondary antibodies (Santa Cruz Biotechnology) and detected using enhanced chemiluminescence (GE Healthcare).
After fixation, cells were permeabilized with 0.2% Triton X-100 for 15 min, washed 3 times with PBS and then incubated with blocking solution (1% BSA, 22.52 mg/mL glycine, 0.1% Tween-20 in PBS) for 1 h. Primary antibodies were diluted in blocking solution and incubated overnight at 4° C. Following three washes with PBS, cells were next incubated with fluorescent secondary antibodies diluted in blocking solution for 1 h at room temperature. Following another 3 PBS washes, nuclei were counterstained with DAPI (ThermoFisher) and then coverslips were mounted on slides using fluorescence mounting medium (DAKO) and sealed using clear nail varnish.

**Q.** Which “CD63 levels (MVB marker)” value (HEK293 cells expressing A53T a-syn) does the source give for DEEIERQLKALG [PDpep1.3] here?
**A.** return of CD63

**Q.** What about the LAMP1 levels (HEK293 cells overexpressing A53T a-syn) of the same sequence?
**A.** restored
